Experimental findings from publication PMC7948418, “Genetic and biased agonist-mediated reductions in β-arrestin recruitment prolong cAMP signaling at glucagon family receptors” (The Journal of Biological Chemistry, 2020) are described below.

For assay [1], the target named is T1, GIPR (Homo sapiens, UniProt P48546).
T1 sequence (P48546 22-466): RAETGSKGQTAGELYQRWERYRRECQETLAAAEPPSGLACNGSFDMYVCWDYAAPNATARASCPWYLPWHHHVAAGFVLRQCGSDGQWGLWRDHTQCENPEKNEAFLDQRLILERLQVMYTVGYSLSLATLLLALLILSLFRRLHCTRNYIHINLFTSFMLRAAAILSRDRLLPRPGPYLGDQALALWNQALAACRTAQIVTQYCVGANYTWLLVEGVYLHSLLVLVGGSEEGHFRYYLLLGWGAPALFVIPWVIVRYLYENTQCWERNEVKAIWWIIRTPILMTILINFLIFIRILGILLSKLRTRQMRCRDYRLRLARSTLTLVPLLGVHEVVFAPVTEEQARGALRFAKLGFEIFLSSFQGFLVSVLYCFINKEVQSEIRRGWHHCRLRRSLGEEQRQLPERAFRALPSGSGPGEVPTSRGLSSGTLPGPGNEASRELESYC
Briefly: cAMP response (HTRF) in PathHunter CHO-GIPR cells. Format: cell-based. To be noted: for Emax: read-out: cAMP Emax (% GIP). On the technique in general: TR-FRET usually uses a lanthanide donor and a delayed reading to cut background.

For assay [2], the target named is T1, GIPR. Description: β-arrestin-2 recruitment by enzyme fragment complementation (PathHunter) CHO-GIPR. Format: cell-based. Conditions: for Emax: read-out: βarr2 Emax (% GIP). For orientation: Activated receptors often draw arrestin, which recruitment assays turn into a signal.
Assay [3] has as its target T2, GLP-1R (Homo sapiens, UniProt P43220). Description: β-arrestin-2 recruitment by enzyme fragment complementation (PathHunter) CHO-GLP-1R. Conditions: read-out: βarr2 Emax (% GLP-1). It counts as cell-based.
The target in assay [4] is T2, GLP-1R. Briefly: cAMP response (HTRF) in PathHunter CHO-GLP-1R cells. It counts as cell-based. To be noted: read-out: cAMP Emax (% GLP-1).
A further assay deals with GLP-1R-SmBiT (UniProt P43220). Description: split reporter (BiFC, NanoBiT); NanoBiT complementation in HEK293T cells co-transfected with receptor-SmBiT and LgBiT-tagged effector; furimazine; 37 °C; baseline 5 min, then 100 nM cognate agonist (GLP-1, GIP or GCG) or vehicle, luminescence over 30 min, normalised to baseline and vehicle.
The target in assay [5] is T3, GIPR-SmBiT (UniProt P48546).
T3 sequence: T1 sequence (P48546 22-466)
Described as above.

Assay [6] concerns the target T3, GIPR-SmBiT.
In assay [7] the target is T3, GIPR-SmBiT. The source holds these as a separate data set.

Square brackets hold non-standard residues; d marks the D form. Ends that are not written are not given here.

T2 sequence (P43220 24-463): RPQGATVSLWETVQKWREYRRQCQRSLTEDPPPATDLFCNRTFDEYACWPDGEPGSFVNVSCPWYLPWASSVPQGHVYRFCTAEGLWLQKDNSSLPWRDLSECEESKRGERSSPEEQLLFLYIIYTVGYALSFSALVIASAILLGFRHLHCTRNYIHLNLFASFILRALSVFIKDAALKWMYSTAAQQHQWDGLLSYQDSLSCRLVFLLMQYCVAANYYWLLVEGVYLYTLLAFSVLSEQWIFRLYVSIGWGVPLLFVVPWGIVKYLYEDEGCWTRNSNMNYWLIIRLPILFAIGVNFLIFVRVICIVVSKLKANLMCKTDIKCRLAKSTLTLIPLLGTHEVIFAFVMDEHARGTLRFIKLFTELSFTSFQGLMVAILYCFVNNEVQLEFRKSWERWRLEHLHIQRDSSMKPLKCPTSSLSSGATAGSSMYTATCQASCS
Sequence of GLP-1R-SmBiT (P43220 24-463): as above

Broadly, the EC50 is the concentration at which the effect is half-maximal. The Emax is the maximal effect, on the per cent scale that the assay sets. On to “YGEGTFISDYSIAMDKIHQQDFVNWLLAQKGKKNDWKHNITQ [GIP-Gly2]”, for which, at GIPR [1], the EC50 is 0.794 nM and the Emax is 100 ± 4%. Further, on GIPR [2], a half-maximal response (EC50) required 316 nM and the Emax is 66 ± 7%.
For the molecule `CC[C@H](C)[C@H](NC(=O)[C@H](Cc1ccccc1)NC(=O)[C@H](CCC(=O)O)NC(=O)[C@H](CCCCN)NC(=O)[C@H](C)NC(=O)[C@H](C)NC(=O)[C@H](CCC(N)=O)NC(=O)CNC(=O)[C@H](CCC(=O)O)NC(=O)[C@H](CC(C)C)NC(=O)[C@H](Cc1ccc(O)cc1)NC(=O)[C@H](CO)NC(=O)[C@H](CO)NC(=O)[C@@H](NC(=O)[C@H](CC(=O)O)NC(=O)[C@H](CO)NC(=O)[C@@H](NC(=O)[C@H](Cc1ccccc1)NC(=O)[C@@H](NC(=O)CNC(=O)[C@H](CCC(=O)O)NC(=O)CNC(=O)[C@@H](N)Cc1c[nH]cn1)[C@@H](C)O)[C@@H](C)O)C(C)C)C(=O)N[C@@H](C)C(=O)N[C@@H](Cc1c[nH]c2ccccc12)C(=O)N[C@@H](CC(C)C)C(=O)N[C@H](C(=O)N[C@@H](CCCCN)C(=O)NCC(=O)N[C@@H](CCCNC(=N)N)C(N)=O)C(C)C` [GLP-1-Gly2], the values for the Emax on GLP-1R [3] and on GLP-1R [4] were 93 ± 3% and 95 ± 4%, respectively.
Turning to `CC[C@H](C)[C@H](NC(=O)[C@H](Cc1ccccc1)NC(=O)[C@H](CCC(=O)O)NC(=O)[C@H](CCCCN)NC(=O)[C@H](C)NC(=O)[C@H](C)NC(=O)[C@H](CCC(N)=O)NC(=O)CNC(=O)[C@H](CCC(=O)O)NC(=O)[C@H](CC(C)C)NC(=O)[C@H](Cc1ccc(O)cc1)NC(=O)[C@H](CO)NC(=O)[C@H](CO)NC(=O)[C@@H](NC(=O)[C@H](CC(=O)O)NC(=O)[C@H](CO)NC(=O)[C@@H](NC(=O)[C@H](Cc1ccccc1)NC(=O)[C@@H](NC(=O)CNC(=O)[C@@H](CCC(N)=O)NC(=O)[C@H](C)NC(=O)[C@@H](N)Cc1c[nH]cn1)[C@@H](C)O)[C@@H](C)O)C(C)C)C(=O)N[C@@H](C)C(=O)N[C@@H](Cc1c[nH]c2ccccc12)C(=O)N[C@@H](CC(C)C)C(=O)N[C@H](C(=O)N[C@@H](CCCCN)C(=O)NCC(=O)N[C@@H](CCCNC(=N)N)C(N)=O)C(C)C` [GLP-1-dGln3], the Emax at GLP-1R [3] (30 min at 37 °C, 4-parameter fit, mean ± SEM, n = 5) came to 60 ± 4%; on GLP-1R [4] (30-min stimulation, 37 °C, no phosphodiesterase inhibitors, 4-parameter fit, mean ± SEM, n = 5), 106 ± 5%.
Consider “FAEGTFISDYSIAMDKIHQQDFVNWLLAQKGKKNDWKHNITQ [GIP-Phe1]”, for which, at GIPR [1], the EC50 is 2 nM and the Emax turned out to be 99 ± 3%. In addition, on GIPR [2], the EC50 is 1000 nM and the Emax came out at 65 ± 3%.
In the case of LgBiT-mini-Gs, the values for the t1/2 of ligand-induced mini-Gs recruitment with GLP-1R-SmBiT and in the assay with GIPR-SmBiT [5] were 1.5 min and 7.1 min, respectively.
“YA[dQ]GTFISDYSIAMDKIHQQDFVNWLLAQKGKKNDWKHNITQ [GIP-dGln3]”: the EC50 is 25.1 nM at GIPR [1] and 316 nM on GIPR [2]. Moreover, the Emax on GIPR [1] was found to be 110 ± 4%; at GIPR [2] it was 23 ± 1%.
For YAEGTFISDYSIAMDKIHQQDFVNWLLAQKGKKNDWKHNITQ [GIP(1–42)], in the assay with GIPR-SmBiT [6], the cAMP (HTRF), Log EC50, 10 min stimulation, wildtype HEK293 cells transiently transfected with SNAP-GIPR was -9.4 Log EC50 (M); the cAMP (HTRF), Log EC50, 10 min stimulation, β-arrestin-1/2 knockout HEK293 cells transiently transfected with SNAP-GIPR was -9.1 Log EC50 (M); the cAMP (HTRF), Log EC50, 60 min stimulation, wildtype HEK293 cells transiently transfected with SNAP-GIPR is -9.6 Log EC50 (M); the cAMP (HTRF), Log EC50, 60 min stimulation, β-arrestin-1/2 knockout HEK293 cells transiently transfected with SNAP-GIPR was -9.7 Log EC50 (M). In addition, in the assay with GIPR-SmBiT [7], the cytoplasmic PKA activation (AKAR4-NES FRET, AUC), Log EC50, wildtype HEK293 cells co-transfected with SNAP-GIPR was -10.1 Log EC50 (M) and the cytoplasmic PKA activation (AKAR4-NES FRET, AUC), Log EC50, β-arrestin-1/2 knockout HEK293 cells co-transfected with SNAP-GIPR is -10.9 Log EC50 (M).
